Publication PMC9103699, “Myoglobin Interaction with Lactate Rapidly Releases Oxygen: Studies on Binding Thermodynamics, Spectroscopy, and Oxygen Kinetics” (International Journal of Molecular Sciences, 2022)
Entries after “also recorded” stand apart in the source; their conditions may differ.

Assays:
equine oxy-Mb [1] = target: T1, equine oxy-Mb (Equus caballus, UniProt P68082); assay: ITC binding of lactate to oxy-Mb; conditions: for Kd: n = 5; for c value: c = nKa[M]t; for ΔS°: from ΔG = ΔH − TΔS
T1 construct: Horse heart muscle myoglobin (Mb), chicken egg white lysozyme, sodium lactate (LAC), and sodium dithionite were purchased from Sigma Aldrich; purchased Sigma Aldrich, St. Louis, MO, USA; host or cells: horse heart muscle
T1 sequence (P68082 whole entry): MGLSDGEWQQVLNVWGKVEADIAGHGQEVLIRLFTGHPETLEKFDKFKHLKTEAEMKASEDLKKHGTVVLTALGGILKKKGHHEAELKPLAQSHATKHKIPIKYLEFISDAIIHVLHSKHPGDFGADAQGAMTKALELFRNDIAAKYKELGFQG
Procedure: (§1) Preparations enriched in oxygenated and deoxygenated forms of Mb were prepared as described by our earlier publication related to Mb interaction with fatty acids and acylcarnitines. Briefly, 500 µM of Mb was dissolved in 50 mM sodium phosphate buffer of desired test pH. To promote conversion of ferric (Fe^3+) to ferrous (Fe^2+) iron, 3 mM of sodium dithionite was added to the protein solution with gentle mixing. Thereafter, the solution was subjected to a desalting column to remove the reducing agent and to remove the interference, particularly in O2 release kinetics and UV-Vis spectroscopy absorbance peaks. […] Thereafter, purging the protein solution enriched in oxy- and deoxy-Mb with either O2 or N2 gas, respectively, was performed continuously for 10 min. Formation of oxy- and deoxy-Mb were confirmed based on their characteristic peaks using UV-visible spectroscopy. All the experiments were performed in three different pH conditions (7.0, 6.4, and 6.0), mimicking intracellular physiological and acidic pH states that would be typically observed in skeletal muscle cells in “rested” and “active” (hyperlactatemia) conditions.
(§2) Protein-ligand binding experiments were performed using isothermal titration calorimetry (ITC) (Microcal PEAQ-ITC, Malvern, Chester County, PA, USA). Before starting the experiment, both the ligand solution and the protein solution were purged with either O2 or N2 for 10 min. Both the protein and LAC solutions were thermally equilibrated to 25 °C prior to the start of the titration. LAC was loaded in the […] at an initial concentration of 50 µM and titrated against 500 µM of either oxy- or deoxy-Mb solution, maintaining a 1:10 ratio between ligand and protein. To obtain the working c-value between 10 ≤ c ≤ 500 [51], different protein to ligand molar ratios (1:2, 1:5, 1:10, and 1:20) were tested, and based on the c-value, the molar ratio of 1:10 was selected for all ITC binding studies. A total of 19 injections (2 µL each) from the syringe were used to generate the ITC curves within each experiment. During the experimental run, the samples were mixed thoroughly at a constant stirring rate of 750 rpm. Between each injection, a 150 s gap was maintained to achieve a stable baseline. Data obtained from the ITC experiments were best fit to a one set of binding sites model provided by Microcal PEAQ-ITC software (version 1.40). Heats of dilution and heats caused by potential products formed during the course of the ITC experiments were corrected by performing appropriate blank titrations, consisting of (a) either oxy- or deoxy-Mb in the test buffer solution, (b) test buffer in the LAC, and (c) buffer-buffer solution. Lysozyme was used as a negative control protein in the protein-ligand binding experiments. All the binding experiments were performed 5 times (n = 5) and data obtained from statistical analysis are presented here.
(§3) The change in entropy (ΔS) was calculated using the equation: ΔG = ΔH − TΔS(1) where ΔG represents the change in Gibbs free energy, ΔH is the change in enthalpy, and T is the absolute temperature.
(§4) c values were calculated using the equation:c = nKa[M]t(2) where n is the number of binding sites per receptor (macromolecule), [M]t is macromolecule concentration, and Ka is the association constant.

equine deoxy-Mb = target: T2, equine deoxy-Mb (Equus caballus, UniProt P68082); assay: ITC binding of lactate to deoxy-Mb; conditions: for Kd: n = 5; for c value: c = nKa[M]t; for ΔS°: from ΔG = ΔH − TΔS
T2 construct: Horse heart muscle myoglobin (Mb), chicken egg white lysozyme, sodium lactate (LAC), and sodium dithionite were purchased from Sigma Aldrich; purchased Sigma Aldrich, St. Louis, MO, USA; host or cells: horse heart muscle
T2 sequence (P68082 whole entry): as above
Procedure: as §1, §2, §3, §4

[2] = target: T3, chicken egg white lysozyme (Gallus gallus, UniProt P00698); assay: ITC binding of LAC to negative control protein lysozyme; conditions: all tested pH conditions (pH 7.0, 6.4, 6.0)
T3 construct: Horse heart muscle myoglobin (Mb), chicken egg white lysozyme, sodium lactate (LAC), and sodium dithionite were purchased from Sigma Aldrich; purchased Sigma Aldrich, St. Louis, MO, USA; host or cells: chicken egg white
T3 sequence (P00698 19-147): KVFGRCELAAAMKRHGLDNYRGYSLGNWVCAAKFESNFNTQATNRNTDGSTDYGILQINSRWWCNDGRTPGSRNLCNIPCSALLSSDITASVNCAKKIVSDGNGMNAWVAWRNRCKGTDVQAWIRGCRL
Procedure: Horse heart muscle myoglobin (Mb), chicken egg white lysozyme, sodium lactate (LAC), and sodium dithionite were purchased from Sigma Aldrich, St. Louis, MO, USA. All other chemicals used in the experiments are of analytical grade and were also procured from Sigma Aldrich, St. Louis, MO, USA.
Protein-ligand binding experiments were performed using isothermal titration calorimetry (ITC) (Microcal PEAQ-ITC, Malvern, Chester County, PA, USA). Before starting the experiment, both the ligand solution and the protein solution were purged with either O2 or N2 for 10 min. Both the protein and LAC solutions were thermally equilibrated to 25 °C prior to the start of the titration. LAC was loaded in the […] at an initial concentration of 50 µM and titrated against 500 µM of either oxy- or deoxy-Mb solution, maintaining a 1:10 ratio between ligand and protein. To obtain the working c-value between 10 ≤ c ≤ 500 [51], different protein to ligand molar ratios (1:2, 1:5, 1:10, and 1:20) were tested, and based on the c-value, the molar ratio of 1:10 was selected for all ITC binding studies. A total of 19 injections (2 µL each) from the syringe were used to generate the ITC curves within each experiment. During the experimental run, the samples were mixed thoroughly at a constant stirring rate of 750 rpm. Between each injection, a 150 s gap was maintained to achieve a stable baseline. […]

equine oxy-Mb [3] = target: T1, equine oxy-Mb; assay: O2 release kinetics from oxy-Mb (Oxytherm+ respirometer); format: biochemical
Procedure: Figure 4 Effect of lactate binding to oxy-Mb and O2 release kinetics. Oxygen kinetics is studied using Oxytherm+ respirometer. All experiments were performed with 50 mM sodium phosphate buffer (pH 7.0, pH 6.4, and pH 6.0) containing 150 µM equine oxy-Mb and varying concentrations of lactate (0.625 mM to 2.5 mM) and oxy-Mb alone as a control. (a) A representative graph showing addition of lactate eliciting a rapid release of O2 from oxy-Mb at pH 6.4. Arrows in the figure indicate the point of addition of oxy-Mb and LAC into buffer during the run. (b) Rate of release of O2 from Mb against lactate concentrations with buffers (pH 7.0, pH 6.4, and pH 6.0). […] All O2 kinetic experiments were repeated 3 times (n = 3). Statistical analysis was performed using one-way ANOVA and the Tukey–Kramer post hoc test. […] Among all the test groups, only statistically […] groups are shown with horizontal lines and two asterisks.
The O2 concentrations (release and binding) during the ligand interactions with Mb in the solution were measured using Oxytherm+ liquid-phase oxygen electrode system (Hansatech Instruments, Norfolk, UK). The Oxytherm+ respirometer is an advanced instrument routinely used for respiration studies.
The measurement of dissolved O2 is calculated at the given temperature and atmospheric pressure according to the following equation [64]: Cs = 14.16 − (0.394 × T) + (0.007714 × T^2) − (0.0000646 × […])(3) where Cs is the saturated O2 concentration in ppm and T is the temperature in °C.
1 ppm is equivalent to 1 µg/mL or (1 µg/32 g/mol) = 0.03125 µmol/mL or 31.25 nmol/mL.
Similarly, deoxy-Mb protein alone (i.e., without LAC) was also tested. All the experiments were carried out at a constant temperature of 25 °C using a Peltier thermostat. The solutions were mixed at 50 rpm using a small magnetic stirring bar placed inside the sample container. Samples were injected into the buffer solution (50 mM sodium phosphate) at varying pH levels (pH 6.0–7.0) using a Hamilton glass syringe (1cc) after achieving equilibrium. Ligand was added to the Mb protein. Appropriate buffer controls voiding either Mb or LAC were used to nullify any artefacts. O2 kinetic experiments were also performed. All the kinetic experiments were performed 3 times (n = 3) and data obtained from statistical analysis are presented here.

oxy-Mb [4] = target: T4, oxy-Mb (Equus caballus, UniProt P68082); assay: Time-resolved UV-Vis spectroscopy of LAC-incubated oxy-Mb; design: species or system horse; conditions: all the test pH conditions
T4 construct: Horse heart muscle myoglobin (Mb), chicken egg white lysozyme, sodium lactate (LAC), and sodium dithionite were purchased from Sigma Aldrich; purchased Sigma Aldrich, St. Louis, MO, USA; host or cells: horse heart muscle
T4 sequence (P68082 whole entry): as the sequence (P68082 whole entry) above
Procedure: (§5) The change in the spectral characteristics of Mb alone and LAC-bound Mb were recorded using UV-Vis spectroscopy (Polarstar Omega, BMG Labtech, ortenberg, Germany). All the sample preparations and the concentrations used were similar to the ITC experiments. After degassing Mb and LAC samples either with O2 or N2 gas in sealed vials, appropriate volumes of the samples were collected using a Hamilton glass syringe (1cc), mixed in a glass cuvette, and sealed immediately; time-resolved spectra were recorded immediately at 25 °C for a period of 75 min. All spectral data were collected at 5 min time intervals. All the spectral experiments were performed 3 times (n = 3).

deoxy-Mb [5] = target: T5, deoxy-Mb (Equus caballus, UniProt P68082); assay: Time-resolved UV-Vis spectroscopy of LAC-incubated deoxy-Mb; design: species or system horse; conditions: data not shown
T5 construct: Horse heart muscle myoglobin (Mb), chicken egg white lysozyme, sodium lactate (LAC), and sodium dithionite were purchased from Sigma Aldrich; purchased Sigma Aldrich, St. Louis, MO, USA; host or cells: horse heart muscle
T5 sequence (P68082 whole entry): as above
Procedure: as §5

oxy-Mb [6] = target: oxy-Mb; design: method as in PMID 8663546; conditions: pH 6.5, spectrophotometric, tonometry; cited from earlier work
deoxy-Mb [7] = target: deoxy-Mb; design: method as in PMID 8663546; conditions: pH 6.5, spectrophotometric, tonometry; cited from earlier work
[8] = pH 6.4, 25 °C, listed as lactate

No. of binding sites (equine oxy-Mb [1]; pH 6.0): 1.0 ± 0.06 ^a2 | ΔH° (equine oxy-Mb [1]; pH 6.0): 34 ± 3.5 ^c2 kcal mol^−1 | Kd (equine oxy-Mb [1]; pH 6.0, 25 °C): 1.9 ± 0.2 µM | ΔG (equine oxy-Mb [1]; pH 6.0, printed as Mb+LAC complex): -7.8 kcal/mol | c value (equine oxy-Mb [1]; pH 6.0): 267.9 ± 30.4 ^d2 | ΔS° (equine oxy-Mb [1]; pH 6.0): 0.14 ± 0.01 ^c2 cal mol^−1 K^−1 | No. of binding sites (equine oxy-Mb [1]; pH 6.4): 0.8 ± 0.03 ^a1 | ΔH° (equine oxy-Mb [1]; pH 6.4): 151.5 ± 18.5 ^b1 kcal mol^−1 | Kd (equine oxy-Mb [1]; pH 6.4, 25 °C): ~7 µM | Kd (equine oxy-Mb [1]; [8]): 6.9 ± 1.1 µM | ΔG (equine oxy-Mb [1]; pH 6.4, oxy-Mb+LAC complex): -6.9 kcal/mol | c value (equine oxy-Mb [1]; pH 6.4): 67.5 ± 15.5 ^b1 | ΔS° (equine oxy-Mb [1]; pH 6.4): 0.5 ± 0.06 ^b1 cal mol^−1 K^−1 | Ka (equine oxy-Mb [1]; pH 7.0): 0.05 µM⁻¹ | No. of binding sites (equine oxy-Mb [1]; pH 7.0): 0.9 ± 0.7 ^b* | ΔG (equine oxy-Mb [1]; pH 7.0): -6.2 kcal/mol | ΔH° (equine oxy-Mb [1]; pH 7.0): −53.1 ± 0.3 ^a* kcal mol^−1 | Kd (equine oxy-Mb [1]; pH 7.0, 25 °C): 20.7 ± 2.7 µM | c value (equine oxy-Mb [1]; pH 7.0): 22.4 ± 1.4 ^a | ΔS° (equine oxy-Mb [1]; pH 7.0): −0.15 ± 0.01 ^a* cal mol^−1 K^−1 | increase of Ka with drop in pH (equine oxy-Mb [1]; pH 7.0 to pH 6.0): ~ 3 fold | No. of binding sites (equine deoxy-Mb; pH 6.0): 0.8 ± 0.02 ^a2 | ΔH° (equine deoxy-Mb; pH 6.0): 12.6 ± 0.4 ^d3 kcal mol^−1 | Kd (equine deoxy-Mb; pH 6.0, 25 °C): 6.4 ± 0.2 µM | c value (equine deoxy-Mb; pH 6.0): 61.2 ± 0.9 ^b1 | ΔS° (equine deoxy-Mb; pH 6.0): 0.1 ± 0.0 ^d3 cal mol^−1 K^−1 | No. of binding sites (equine deoxy-Mb; pH 6.4): 0.8 ± 0.03 ^a1 | ΔH° (equine deoxy-Mb; pH 6.4): 149.5 ± 13.0 ^b1 kcal mol^−1 | Kd (equine deoxy-Mb; pH 6.4, 25 °C): ~14 µM | Kd (equine deoxy-Mb; [8]): 13.7 ± 1.6 µM | c value (equine deoxy-Mb; pH 6.4): 30.4 ± 4.6 ^c1 | ΔS° (equine deoxy-Mb; pH 6.4): 0.55 ± 0.03 ^b1 cal mol^−1 K^−1 | Ka at pH 6.4 relative to pH 6.0 (equine deoxy-Mb; pH 6.4 vs pH 6.0): ~ 2 fold | binding of LAC (ITC) (equine deoxy-Mb; pH 7.0): No detectable binding | No. of binding sites (equine deoxy-Mb; pH 7.0, NDB: no detectable binding): NDB | O2 release compared to oxy-Mb alone (equine oxy-Mb [3]; 0.625 mM LAC, pH 6.0): no significance difference | maximum rate of O2 release (equine oxy-Mb [3]; 2.5 mM LAC, pH 6.4 buffer, 25 °C): 72 nmol/min/g protein | O2 release rate constant (equine oxy-Mb [3]; pH 6.0): 0.04 mM LAC/nM O2 release | O2 release rate constant (equine oxy-Mb [3]; pH 6.4): 0.029 mM LAC/nM O2 release | O2 release rate constant (equine oxy-Mb [3]; pH 7.0): 0.537 mM LAC/nM O2 release | change in UV-Vis spectral data (oxy-Mb [4]): no change in spectral data
Compound: CC(O)C(=O)[O-].[Na+] (stereo not drawn) [LAC, sodium lactate]
binding of LAC (ITC) [2]: no detectable binding; also recorded: did not bound | change in UV-Vis spectral data (deoxy-Mb [5]): marginal changes in the heme peak absorbance (435 nm) | Kd (oxy-Mb [6]): 26000 µM | Kd (deoxy-Mb [7]): 2500 µM
